Results taken from patent US10383880B2 (Reset Therapeutics, Inc., priority 2012, dated 2019).

system: Per2-dLuc U2OS reporter cells; experiment: Per2 assay for evaluating the potency of test compounds (high-throughput circadian assay); assay type: cell-based; settings: Homo sapiens, U2OS, stable U2OS reporter cells harboring Per2-dLuc; luminescence monitored over 4-5 days at 35° C.
Method in brief: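 After 24 h culture, U2OS cells carrying Per2-dLuc were serum-shock synchronized into explant medium with 1.0 mM luciferin (10 mM HEPES pH 7.0) and compound in 0.5% DMSO. Luminescence was recorded over 4–5 days at 35 °C. Circadian period, amplitude and phase were derived, and EC50 calculated.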

| SMILES | EC50 [nM] |
| --- | --- |
| O=S1(=O)N(CC(O)Cn2c3ccc(F)cc3c3cc(F)ccc32)CCCN1C1CCCCC1 (stereo not drawn) [Compound 222, 2-(3-(3,6-Difluoro-9H-carbazol-9-yl)-2-hydroxypropyl)-6-cyclohexyl-1,2,6-thiadiazinane-1,1-dioxide] | 7120 |
| O=S1(=O)Cc2ccccc2CN1CC(O)Cn1c2ccccc2c2ccccc21 (stereo not drawn) [Compound 35, N-(3-(9H-Carbazol-9-yl)-2-hydroxypropyl)-3,4-dihydro-1H-benzo[d][1,2]thiazine 2,2-dioxide] | 1500 |
| O=S1(=O)CCc2ccccc2N1CC(O)Cn1c2ccccc2c2ccccc21 (stereo not drawn) [Compound 37, N-(3-(9H-Carbazol-9-yl)-2-hydroxypropyl)-3,4-dihydro-1H-benzo[c][1,2]thiazine 2,2-dioxide] | 34 |
| CS(=O)(=O)N(CC(O)Cn1c2ccccc2c2ccccc21)C1CC1 (stereo not drawn) [Compound 56, N-(3-(9H-Carbazol-9-yl)-2-hydroxypropyl)-N-cyclopropylmethanesulfonamide] | 128 |
| CS(=O)(=O)N(Cc1ccco1)CC(O)Cn1c2ccccc2c2ccccc21 (stereo not drawn) [Compound 1, N-(3-(9H-Carbazol-9-yl)-2-hydroxypropyl)-N-(furan-2-ylmethyl)methanesulfonamide] | 340 |
| CC1CCCC1N(CC(C)(O)Cn1c2ccc(F)cc2c2cc(F)ccc21)S(C)(=O)=O (stereo not drawn) [Compound 192, N-(3-(3,6-Difluoro-9H-carbazol-9-yl)-2-hydroxy-2-methylpropyl)-N-(2-methylcyclopentyl)methanesulfonamide] | 686 |
| CC(C)(C(O)Cn1c2ccc(F)cc2c2cc(F)ccc21)N1CCCS1(=O)=O (stereo not drawn) [Compound 244, 2-(4-(3,6-Difluoro-9H-carbazol-9-yl)-3-hydroxy-2-methylbutan-2-yl)isothiazolidine-1,1-dioxide] | 57 |
| CC(C)N(CC(O)Cn1c2ccc(F)cc2c2cc(F)ccc21)S(C)(=O)=O (stereo not drawn) [Compound 117, N-(3-(3,6-Difluoro-9H-carbazol-9-yl)-2-hydroxypropyl)-N-isopropylmethanesulfonamide] | 127 |
| CS(=O)(=O)N(CC(O)Cn1c2ccc(F)cc2c2ccc(F)cc21)C1CCC1 (stereo not drawn) [Compound 166, N-Cyclobutyl-N-(3-(2,6-difluoro-9H-carbazol-9-yl)-2-hydroxypropyl)methanesulfonamide] | 147 |
| CC1(C)CCC(N(CC(O)Cn2c3ccccc3c3ccccc32)S(C)(=O)=O)CC1 (stereo not drawn) [Compound 141, N-(3-(9H-Carbazol-9-yl)-2-hydroxypropyl)-N-(4,4-dimethylcyclohexyl)methanesulfonamide] | 846 |
| CS(=O)(=O)N(Cc1ccco1)CC(O)Cn1c2ccccc2c2c(F)cccc21 (stereo not drawn) [Compound 239, N-(3-(4-Fluoro-9H-carbazol-9-yl)-2-hydroxy-propyl)-N-(furan-2-yl-methyl)methane-sulfonamide] | 1580 |
| CC1CN(CC(C)(O)Cn2c3ccc(F)cc3c3cc(F)ccc32)S(=O)(=O)C1 (stereo not drawn) [Compound 195, 2-(3-(3,6-Difluoro-9H-carbazol-9-yl)-2-hydroxy-2-methylpropyl)-4-methylisothiazolidine-1,1-dioxide] | 254 |
| CS(=O)(=O)N(CC(O)Cn1c2ccccc2c2ccccc21)c1cccc(C#N)c1 (stereo not drawn) [Compound 72, N-(3-(9H-Carbazol-9-yl)-2-hydroxypropyl)-N-(3-cyanophenyl)methanesulfonamide] | 2580 |
| CS(=O)(=O)N(CC(O)Cn1c2ccccc2c2ccccc21)C1CCCCC1(F)F (stereo not drawn) [Compound 135, N-(3-(9H-Carbazol-9-yl)-2-hydroxypropyl)-N-(2,2-difluorocyclohexyl)methanesulfonamide] | 609 |
| O=S1(=O)NCCCN1CC(O)Cn1c2ccccc2c2ccccc21 (stereo not drawn) [Compound 123, 2-(3-(9H-Carbazol-9-yl)-2-hydroxypropyl)-1,2,6-thiadiazinane-1,1-dioxide] | 33 |
| CS(=O)(=O)N(Cc1ccco1)CC(O)Cn1c2ccc(F)cc2c2c(F)cccc21 (stereo not drawn) [Compound 109, N-(3-(3,5-Difluoro-9H-carbazol-9-yl)-2-hydroxypropyl)-N-(furan-2-ylmethyl)methanesulfonamide] | 7420 |
| COCCN(CC(O)Cn1c2cc(F)ccc2c2c(F)cccc21)S(C)(=O)=O (stereo not drawn) [Compound 99, N-(3-(2,5-Difluoro-9H-carbazol-9-yl)-2-hydroxypropyl)-N-(2-methoxyethyl)methanesulfonamide] | 3550 |
| CS(=O)(=O)N(Cc1cccc(F)c1)CC(O)Cn1c2ccccc2c2ccccc21 (stereo not drawn) [Compound 67, N-(3-(9H-Carbazol-9-yl)-2-hydroxypropyl)-N-(3-fluorobenzyl)methanesulfonamide] | 3140 |
| CC1CCCC(N(CC(O)Cn2c3ccccc3c3ccccc32)S(C)(=O)=O)C1 (stereo not drawn) [Compound 142, N-(3-(9H-Carbazol-9-yl)-2-hydroxypropyl)-N-(3-methylcyclohexyl)methanesulfonamide] | 813 |
| CS(=O)(=O)N(CC(O)Cn1c2ccc(F)cc2c2cc(F)ccc21)c1ccccc1 (stereo not drawn) [Compound 199, N-(3-(3,6-Difluoro-9H-carbazol-9-yl)-2-hydroxypropyl)-N-phenylmethanesulfonamide] | 544 |

| SMILES | EC50 [nM] |
| --- | --- |
| CS(=O)(=O)N(Cc1ccco1)CC(O)Cn1c2ccccc2c2cccc(F)c21 (stereo not drawn) [Compound 236, N-(3-(1-Fluoro-9H-carbazol-9-yl)-2-hydroxypropyl)-N-(furan-2-ylmethyl)methanesulfonamide] | 620 |
| CS(=O)(=O)N(Cc1ccco1)CC(O)Cn1c2ccc(F)cc2c2ccc(F)cc21 (stereo not drawn) [Compound 102, N-(3-(2,6-Difluoro-9H-carbazol-9-yl)-2-hydroxypropyl)-N-(furan-2-ylmethyl)methanesulfonamide] | 3250 |
| COCc1ccc(N(CC(O)Cn2c3ccc(F)cc3c3cc(F)ccc32)S(C)(=O)=O)cc1 (stereo not drawn) [Compound 209, N-(3-(3,6-Difluoro-9H-carbazol-9-yl)-2-hydroxypropyl)-N-(4-(methoxymethyl)phenyl)methanesulfonamide] | 4810 |
| CC1CC(N(CC(C)(O)Cn2c3ccc(F)cc3c3cc(F)ccc32)S(C)(=O)=O)C1 (stereo not drawn) [Compound 191, N-(3-(3,6-Difluoro-9H-carbazol-9-yl)-2-hydroxy-2-methylpropyl)-N-(3-methylcyclobutyl)methanesulfonamide] | 1190 |
| CC1CCCC1N(CC(O)Cn1c2ccccc2c2ccccc21)S(C)(=O)=O (stereo not drawn) [Compound 136, N-(3-(9H-Carbazol-9-yl)-2-hydroxypropyl)-N-(2-methylcyclopentyl)methanesulfonamide] | 113 |
| CC(CN(CC(O)Cn1c2ccccc2c2ccccc21)S(C)(=O)=O)c1ccccc1 (stereo not drawn) [Compound 70, N-(3-(9H-Carbazol-9-yl)-2-hydroxypropyl)-N-(2-phenylpropyl)methanesulfonamide] | 8970 |
| CS(=O)(=O)N(CC(O)Cn1c2ccc(F)cc2c2cc(F)ccc21)c1ccc(C2CC2)cc1 (stereo not drawn) [Compound 207, N-(4-Cyclopropylphenyl)-N-(3-(3,6-difluoro-9H-carbazol-9-yl)-2-hydroxypropyl)methanesulfonamide] | 2950 |
| CCOCCS(=O)(=O)N(Cc1ccco1)CC(O)Cn1c2ccccc2c2ccccc21 (stereo not drawn) [Compound 12, N-(3-(9H-Carbazol-9-yl)-2-hydroxypropyl)-2-ethoxy-N-(furan-2-ylmethyl)ethanesulfonamide] | 1010 |
| CC(O)(CN1CCC(F)S1(=O)=O)Cn1c2ccc(F)cc2c2cc(F)ccc21 (stereo not drawn) [Compound 184, 2-(3-(3,6-Difluoro-9H-carbazol-9-yl)-2-hydroxy-2-methylpropyl)-5-fluoroisothiazolidine-1,1-dioxide] | 155 |
| CCCS(=O)(=O)N(Cc1ccco1)CC(O)Cn1c2ccccc2c2ccccc21 (stereo not drawn) [Compound 3, N-(3-(9H-Carbazol-9-yl)-2-hydroxypropyl)-N-(furan-2-ylmethyl)propane-1-sulfonamide] | 650 |
| CC(C)N(CC(O)Cn1c2ccccc2c2ccccc21)S(C)(=O)=O (stereo not drawn) [Compound 46, N-(3-(9H-Carbazol-9-yl)-2-hydroxypropyl)-N-isopropylmethanesulfonamide] | 100 |
| CCOCc1ccc(N(CC(O)Cn2c3ccc(F)cc3c3cc(F)ccc32)S(C)(=O)=O)cc1 (stereo not drawn) [Compound 208, N-(3-(3,6-Difluoro-9H-carbazol-9-yl)-2-hydroxypropyl)-N-(4-(ethoxymethyl)phenyl)methanesulfonamide] | 4710 |
| CC1(C)CCN(CC(O)Cn2c3ccc(F)cc3c3cc(F)ccc32)S1(=O)=O (stereo not drawn) [Compound 178, 2-(3-(3,6-Difluoro-9H-carbazol-9-yl)-2-hydroxypropyl)-5,5-dimethylisothiazolidine-1,1-dioxide] | 73 |
| CC(O)(CN1CCCCS1(=O)=O)Cn1c2ccc(F)cc2c2cc(F)ccc21 (stereo not drawn) [Compound 116, 2-(3-(3,6-Difluoro-9H-carbazol-9-yl)-2-hydroxy-2-methylpropyl)-1,2-thiazinane 1,1-dioxide] | 540 |
| O=S1(=O)c2ccccc2CN1CC(O)Cn1c2ccccc2c2ccccc21 (stereo not drawn) [Compound 34, N-(3-(9H-Carbazol-9-yl)-2-hydroxypropyl)-2,3-dihydrobenzo[d]isothiazole 1,1-dioxide] | 31 |
| O=S(=O)(CC(F)(F)F)N(Cc1ccco1)CC(O)Cn1c2ccccc2c2ccccc21 (stereo not drawn) [Compound 7, N-(3-(9H-Carbazol-9-yl)-2-hydroxypropyl)-2,2,2-trifluoro-N-(furan-2-ylmethyl)ethanesulfonamide] | 2100 |
| CC(C)(C(O)CN1CCCS1(=O)=O)n1c2ccccc2c2ccccc21 (stereo not drawn) [Compound 114, 2-(3-(9H-Carbazol-9-yl)-2-hydroxy-3-methylbutyl)-isothiazolidine-1,1-dioxide] | 521 |
| CC1(N(CC(O)Cn2c3ccccc3c3ccccc32)S(C)(=O)=O)CC1 (stereo not drawn) [Compound 137, N-(3-(9H-Carbazol-9-yl)-2-hydroxypropyl)-N-(1-methylcyclopropyl)methanesulfonamide] | 76 |
| O=S(=O)(CCCF)N(Cc1ccco1)CC(O)Cn1c2ccccc2c2ccccc21 (stereo not drawn) [Compound 10, N-(3-(9H-Carbazol-9-yl)-2-hydroxypropyl)-3-fluoro-N-(furan-2-ylmethyl)propane-1-sulfonamide] | 1130 |
